Test results reported in US10988478B1, “Pyrazolo[1,5a]pyrimidine derivatives as IRAK4 modulators” (Genentech, Inc., priority 2015, dated 2021).

The molecules below were run against human IRAK4 (Homo sapiens (Human), UniProt Q9NWZ3) (assay: IRAK4 kinase inhibition, Transcreener fluorescence polarization ADP assay). Conditions: recombinant full-length His6-IRAK4; 125 uM ATP; 90 min; Ki computed using ATP Km 642 uM.
Type: biochemical
Description: Compounds were assayed for inhibition of human IRAK4 and IRAK1 catalytic activity using recombinant enzyme produced from insect cells. Full-length IRAK4 protein, carrying an N-terminal His6-Tag, was obtained from Life Technologies (Carlsbad, Calif., USA). The IRAK1 construct was produced internally and was comprised of IRAK1 residues Arg194 to Ser712, preceded by an NH2-terminal His6 tag and the coding sequence for glutathione-S-transferase.

Sequence of human IRAK4 (Q9NWZ3 whole entry): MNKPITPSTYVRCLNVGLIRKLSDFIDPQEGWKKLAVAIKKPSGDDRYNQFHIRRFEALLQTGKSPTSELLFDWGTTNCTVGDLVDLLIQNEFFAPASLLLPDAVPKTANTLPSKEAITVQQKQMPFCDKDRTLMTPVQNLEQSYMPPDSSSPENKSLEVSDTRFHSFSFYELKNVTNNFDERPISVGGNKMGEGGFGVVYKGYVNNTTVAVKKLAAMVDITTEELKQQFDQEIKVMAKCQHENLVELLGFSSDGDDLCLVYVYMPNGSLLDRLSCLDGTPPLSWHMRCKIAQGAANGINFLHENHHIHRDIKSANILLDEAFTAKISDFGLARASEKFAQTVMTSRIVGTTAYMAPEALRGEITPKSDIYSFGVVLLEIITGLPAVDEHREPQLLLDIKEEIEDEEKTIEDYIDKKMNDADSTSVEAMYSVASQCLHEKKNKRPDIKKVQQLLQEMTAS

Ki [nM] | Structure (SMILES)
12 | C[C@@]1(O)COc2cc(N3CCC(n4ccnc4)CC3)c(NC(=O)c3cnn4cccnc34)cc2C1 [Example 429, (S)-N-(7-(4-(1H-imidazol-1-yl)piperidin-1-yl)-3-hydroxy-3-methylchroman-6-yl)pyrazolo[1,5-a]pyrimidine-3-carboxamide]
20 | Cn1cc(COc2cc3c(cc2NC(=O)c2cnn4cccnc24)C[C@](C)(O)CO3)cn1 [Example 431, (S)-N-(3-hydroxy-3-methyl-7-((1-methyl-1H-pyrazol-4-yl)methoxy)chroman-6-yl)pyrazolo[1,5-a]pyrimidine-3-carboxamide]
22 | CC(C)(O)CN1CCN(c2cc3c(cc2NC(=O)c2cnn4cccnc24)CC(C)(C)O3)CC1 [Example 434, N-(6-(4-(2-hydroxy-2-methylpropyl)piperazin-1-yl)-2,2-dimethyl-2,3-dihydrobenzofuran-5-yl)pyrazolo[1,5-a]pyrimidine-3-carboxamide]
53 | CCC(O)(CC)CN1CCN(c2cc3c(cc2NC(=O)c2cnn4cccnc24)CC(C)(C)O3)CC1 [Example 435, N-(6-(4-(2-Ethyl-2-hydroxybutyl)piperazin-1-yl)-2,2-dimethyl-2,3-dihydrobenzofuran-5-yl)pyrazolo[1,5-a]pyrimidine-3-carboxamide]
53 | CC1(C)Cc2cc(NC(=O)c3cnn4cccnc34)c(N3CCN(CC(=O)NCC4CCCO4)CC3)cc2O1 (centres unmarked) [Example 440, N-(2,2-dimethyl-6-(4-(2-oxo-2-(((tetrahydrofuran-2-yl)methyl)amino)ethyl)piperazin-1-yl)-2,3-dihydrobenzofuran-5-yl)pyrazolo[1,5-a]pyrimidine-3-carboxamide]
96 | CC1(C)Cc2cc(NC(=O)c3cnn4cccnc34)c(N3CCN4CCC[C@H]4C3)cc2O1 [Example 442, (S)-N-(6-(hexahydropyrrolo[1,2-a]pyrazin-2(1H)-yl)-2,2-dimethyl-2,3-dihydrobenzofuran-5-yl)pyrazolo[1,5-a]pyrimidine-3-carboxamide]
6 | CC1(C)Cc2cc(NC(=O)c3cnn4cccnc34)c(O[C@H]3CCN(CC(N)=O)C3)cc2O1 [Example 447, (S)-N-(6-((1-(2-amino-2-oxoethyl)pyrrolidin-3-yl)oxy)-2,2-dimethyl-2,3-dihydrobenzofuran-5-yl)pyrazolo[1,5-a]pyrimidine-3-carboxamide]
80 | N[C@H]1CO[C@@H](CN2Cc3cc(NC(=O)c4cnn5cccnc45)c(N4CCOCC4)cc3C2=O)OC1 [Example 449, N-(2-(((2R,5R)-5-amino-1,3-dioxan-2-yl)methyl)-6-morpholino-1-oxoisoindolin-5-yl)pyrazolo[1,5-a]pyrimidine-3-carboxamide]
44 | CCN1CCN(c2cc3c(cc2NC(=O)c2cnn4cccnc24)CC(C)(C)O3)CC1 [Example 453, N-(6-(4-ethylpiperazin-1-yl)-2,2-dimethyl-2,3-dihydrobenzofuran-5-yl)pyrazolo[1,5-a]pyrimidine-3-carboxamide]
5.8 | CC1(C)Cc2cc(NC(=O)c3cnn4cccnc34)c(N3CCN(CCC(N)=O)CC3)cc2O1 [Example 455, N-(6-(4-(3-amino-3-oxopropyl)piperazin-1-yl)-2,2-dimethyl-2,3-dihydrobenzofuran-5-yl)pyrazolo[1,5-a]pyrimidine-3-carboxamide]
2.6 | CC1(C)Cc2cc(NC(=O)c3cnn4cccnc34)c(N3CCN(CC#N)CC3)cc2O1 [Example 456, N-(6-(4-(cyanomethyl)piperazin-1-yl)-2,2-dimethyl-2,3-dihydrobenzofuran-5-yl)pyrazolo[1,5-a]pyrimidine-3-carboxamide]

Second part, the molecule before the results:

Structure (SMILES) | Ki [nM]
C[C@@]1(O)COc2cc(N3CCC(C#N)CC3)c(NC(=O)c3cnn4cccnc34)cc2C1 [Example 427, (S)-N-(7-(4-cyanopiperidin-1-yl)-3-hydroxy-3-methylchroman-6-yl)pyrazolo[1,5-a]pyrimidine-3-carboxamide] | 38
C[C@]1(O)COc2cc(N3CCC(n4ccnc4)CC3)c(NC(=O)c3cnn4cccnc34)cc2C1 [Example 428, (R)-N-(7-(4-(1H-imidazol-1-yl)piperidin-1-yl)-3-hydroxy-3-methylchroman-6-yl)pyrazolo[1,5-a]pyrimidine-3-carboxamide] | 75
CN(C)C(=O)[C@]1(C)Cc2cc(NC(=O)c3cnn4cccnc34)c(N3CCOCC3)cc2O1 [Example 438, (S)—N-(2-(dimethylcarbamoyl)-2-methyl-6-morpholino-2,3-dihydrobenzofuran-5-yl)pyrazolo[1,5-a]pyrimidine-3-carboxamide] | 55
CN(C)C(=O)[C@@]1(C)Cc2cc(NC(=O)c3cnn4cccnc34)c(N3CCOCC3)cc2O1 [Example 439, (R)—N-(2-(dimethylcarbamoyl)-2-methyl-6-morpholino-2,3-dihydrobenzofuran-5-yl)pyrazolo[1,5-a]pyrimidine-3-carboxamide] | 34
CC1(C)Cc2cc(NC(=O)c3cnn4cccnc34)c(N3CCN4CCC[C@@H]4C3)cc2O1 [Example 443, (R)-N-(6-(hexahydropyrrolo[1,2-a]pyrazin-2(1H)-yl)-2,2-dimethyl-2,3-dihydrobenzofuran-5-yl)pyrazolo[1,5-a]pyrimidine-3-carboxamide] | 38
CSCC[C@@]1(C)Cc2cc(NC(=O)c3cnn4cccnc34)c(N3CCOCC3)cc2O1 [Example 444, (R)—N-(2-methyl-2-(2-(methylthio)ethyl)-6-morpholino-2,3-dihydrobenzofuran-5-yl)pyrazolo[1,5-a]pyrimidine-3-carboxamide] | 2.8
CC1(C)Cc2cc(NC(=O)c3cnn4cccnc34)c(O[C@@H]3CCN(CC(N)=O)C3)cc2O1 [Example 445, (R)—N-(6-((1-(2-amino-2-oxoethyl)pyrrolidin-3-yl)oxy)-2,2-dimethyl-2,3-dihydrobenzofuran-5-yl)pyrazolo[1,5-a]pyrimidine-3-carboxamide] | 3.3
CC1(C)Cc2cc(NC(=O)c3cnn4cccnc34)c(OC3CN(CCO)C3)cc2O1 [Example 446, N-(6-((1-(2-hydroxyethyl)azetidin-3-yl)oxy)-2,2-dimethyl-2,3-dihydrobenzofuran-5-yl)pyrazolo[1,5-a]pyrimidine-3-carboxamide] | 52
CCn1cc(COc2cc3c(cc2NC(=O)c2cnn4cccnc24)CC(C)(C)O3)cn1 [Example 448, N-(6-((1-ethyl-1H-pyrazol-4-yl)methoxy)-2,2-dimethyl-2,3-dihydrobenzofuran-5-yl)pyrazolo[1,5-a]pyrimidine-3-carboxamide] | 24
COc1cc2c(cc1NC(=O)c1cnn3ccc(N[C@@H]4CCCC[C@@H]4N)nc13)CC(C)(C)O2 [Example 451, 5-[[(1R,2S)-2-aminocyclohexyl]amino]-N-(6-methoxy-2,2-dimethyl-3H-benzofuran-5-yl)pyrazolo[1,5-a]pyrimidine-3-carboxamide] | 4.7
CC1(C)Cc2cc(NC(=O)c3cnn4cccnc34)c(C(N)=O)cc2O1 [Example 452, N-(6-carbamoyl-2,2-dimethyl-3H-benzofuran-5-yl)pyrazolo[1,5-a]pyrimidine-3-carboxamide] | 150
CSCCN1CCN(c2cc3c(cc2NC(=O)c2cnn4cccnc24)CC(C)(C)O3)CC1 [Example 454, N-(2,2-dimethyl-6-(4-(2-(methylthio)ethyl)piperazin-1-yl)-2,3-dihydrobenzofuran-5-yl)pyrazolo[1,5-a]pyrimidine-3-carboxamide] | 8.8
